2 molecules from patent US20150306096A1, “8'-HYDROXY-DIHYDROERGOTAMINE COMPOUNDS AND COMPOSITIONS” (MAP Pharmaceuticals, Inc., priority 2012, published 2015) can be followed below.

Holding throughout (format): cell-based
In assay [1] the target is T1, human Dopamine D2L receptor (Homo sapiens, UniProt P14416).
T1 construct: expressed in transfected cells; host or cells: CHO-K1
Kind of assay: cAMP HTRF functional assay (agonist/antagonist). The method, then: (§1) Functional profiling of agonist and antagonist activities of 8′-OH DHE on human Adrenergic α1D, Dopamine D2L, and Serotonin 5-HT1B, 5-HT1D, 5-HT1F, 5-HT3, 5-HT4e and 5-HT5A receptors (compared against the parent (DHE) molecule) was carried out as follows.
(§2) The SPA 35S-GTPγS tests were conducted with Euroscreen membrane preparations […]. The HTRF assays were conducted with recombinant cell lines. The receptor accession numbers, cellular background and reference compounds are as reported below in Table 10.
(2) DHE and 8′-OH DHE were tested for agonist and antagonist activity at the human Dopamine D2L receptor using cAMP HTRF assay (in triplicate) at the following nanomolar concentrations: […]
(§3) Agonist activity of the test compounds was expressed as a percentage of the activity of the reference agonist at its EC100 concentration. Antagonist activity of the test compounds was expressed as a percentage of the inhibition of the reference agonist activity at its EC80 concentration. Dose-response data from the test compounds were analyzed with XLfit (IDBS) software using nonlinear regression applied to a sigmoidal dose-response model and the following equation: […]

The target of assay [2] is T2, human Serotonin 5-HT3 receptor (Homo sapiens, UniProt P46098).
T2 construct: expressed in transfected cells; host or cells: CHO-K1 or HEK-293, coexpressing mitochondrial apoaequorin
T2 sequence (P46098 24-478): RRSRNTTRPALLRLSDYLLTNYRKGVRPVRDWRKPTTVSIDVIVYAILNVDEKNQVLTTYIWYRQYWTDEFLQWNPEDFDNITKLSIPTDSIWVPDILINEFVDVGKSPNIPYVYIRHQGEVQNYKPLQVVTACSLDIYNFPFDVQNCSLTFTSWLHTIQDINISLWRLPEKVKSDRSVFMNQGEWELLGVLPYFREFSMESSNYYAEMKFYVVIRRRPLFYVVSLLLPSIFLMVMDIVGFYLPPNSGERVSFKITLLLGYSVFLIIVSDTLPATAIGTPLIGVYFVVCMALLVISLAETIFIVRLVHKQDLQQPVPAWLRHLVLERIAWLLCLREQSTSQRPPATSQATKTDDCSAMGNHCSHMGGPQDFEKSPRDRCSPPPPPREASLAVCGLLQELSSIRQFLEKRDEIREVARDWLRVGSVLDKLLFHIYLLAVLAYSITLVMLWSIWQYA
Kind of assay: Aequorin functional assay (agonist/antagonist). As to the method:
as §1, §2
(§4) (1) DHE and 8′-OH DHE were tested for agonist and antagonist activity at the human Adrenergic α1D, Serotonin 5-HT3 and Serotonin 5-HT5A receptors using aequorin assay (in triplicate) at the following nanomolar concentrations:
(§5) (5) DHE was tested for agonist and antagonist activity at the human Adrenergic α1D, Serotonin 5-HT3 and Serotonin 5-HT5A receptors using aequorin assay (in triplicate), and at the human Dopamine D2L, Serotonin 5-HT1F and Serotonin 5-HT4E receptors using cAMP HTRF assay (in triplicate) at the following nanomolar concentrations:
(§6) (6) 8′-OH DHE was tested for agonist and antagonist activity at the human Adrenergic α1D, Serotonin 5-HT3 and Serotonin 5-HT5A receptors using aequorin assay (in triplicate), at the human Dopamine D2L, Serotonin 5-HT1F and Serotonin 5-HT4E receptors using cAMP HTRF assay (in triplicate), and at the human Serotonin 5-HT1B and Serotonin 5-HT1D receptors using GTPγS assay (in triplicate) at the following nanomolar concentrations:
(§7) CHO-K1 or HEK-293 cells coexpressing mitochondrial apoaequorin and recombinant human […], or recombinant human Serotonin 5-HT3 receptor, or recombinant human Serotonin 5-HT5A receptor grown to mid-log phase in culture media without antibiotics were detached with PBS-EDTA, centrifuged and resuspended in assay buffer (DMEMHAM's F12 with HEPES, without phenol red+0.1% BSA protease free) at a concentration of 1×10^6 cells/mL. Cells were incubated at RT for at least 4 hours with coelenterazine h. The reference agonist was tested to evaluate performance of the assay on each day of the test and to determine EC50. For agonist testing, 50 μL of cell suspension was mixed with 50 μL of test compound or reference agonist in a 96-well plate. The resulting emission of light was recorded using Hamamatsu Functional Drug Screening System 6000 (FDSS 6000 luminometer). For antagonist testing, 100 μL of the reference agonist at its EC80 was injected on the mix of cells and test compounds, following an incubation of 15 minutes after the first injection. The resulting emission of light was recorded using the FDSS 6000 luminometer. To standardize the emission of recorded light (determination of the ‘100% signal’) across plates and across different experiments, some of the wells contained 100 μM digitonin or a saturating concentration of ATP (20 μM).
as §3

The target of assay [3] is T3, human Adrenergic α1D receptor (Homo sapiens, UniProt P25100).
T3 construct: expressed in transfected cells; host or cells: CHO-K1 or HEK-293, coexpressing mitochondrial apoaequorin
T3 sequence (P25100 whole entry): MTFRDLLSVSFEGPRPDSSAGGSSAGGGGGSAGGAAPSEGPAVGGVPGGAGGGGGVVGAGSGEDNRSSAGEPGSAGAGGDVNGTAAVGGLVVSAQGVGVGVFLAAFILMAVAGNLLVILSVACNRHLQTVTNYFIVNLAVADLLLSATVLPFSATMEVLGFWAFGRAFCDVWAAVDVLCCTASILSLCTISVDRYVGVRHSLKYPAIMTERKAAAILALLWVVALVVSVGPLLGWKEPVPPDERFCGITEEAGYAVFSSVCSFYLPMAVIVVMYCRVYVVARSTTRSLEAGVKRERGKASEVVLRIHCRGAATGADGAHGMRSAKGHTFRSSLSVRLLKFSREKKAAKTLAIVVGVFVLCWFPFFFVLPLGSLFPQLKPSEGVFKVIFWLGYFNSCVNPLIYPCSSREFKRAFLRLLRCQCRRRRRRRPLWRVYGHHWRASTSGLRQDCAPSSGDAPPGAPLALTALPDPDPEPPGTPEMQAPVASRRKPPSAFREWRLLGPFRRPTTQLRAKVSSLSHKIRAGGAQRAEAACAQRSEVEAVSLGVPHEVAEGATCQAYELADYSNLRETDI
In words: Aequorin functional assay (agonist/antagonist). The method, then: as §1, §2, §4, §5, §6, §7, §3

Assay [4] has as its target T4, human Serotonin 5-HT4e receptor (Homo sapiens, UniProt Q13639).
T4 construct: expressed in transfected cells; host or cells: CHO-K1 (transient)
Kind of assay: cAMP HTRF functional assay (agonist/antagonist). As to the method:
as §1, §2
(4) DHE and 8′-OH DHE were tested for agonist and antagonist activity at the human Serotonin 5-HT1F and Serotonin 5-HT4E receptors using cAMP HTRF assay (in triplicate) at the following nanomolar concentrations: […]
as §3
For orientation: In TR-FRET formats the signal depends on donor and acceptor labels being close together.

Read-outs that look alike come from different tables or passages of the source.

T4 sequence (Q13639 1-378 isoform Q13639-5): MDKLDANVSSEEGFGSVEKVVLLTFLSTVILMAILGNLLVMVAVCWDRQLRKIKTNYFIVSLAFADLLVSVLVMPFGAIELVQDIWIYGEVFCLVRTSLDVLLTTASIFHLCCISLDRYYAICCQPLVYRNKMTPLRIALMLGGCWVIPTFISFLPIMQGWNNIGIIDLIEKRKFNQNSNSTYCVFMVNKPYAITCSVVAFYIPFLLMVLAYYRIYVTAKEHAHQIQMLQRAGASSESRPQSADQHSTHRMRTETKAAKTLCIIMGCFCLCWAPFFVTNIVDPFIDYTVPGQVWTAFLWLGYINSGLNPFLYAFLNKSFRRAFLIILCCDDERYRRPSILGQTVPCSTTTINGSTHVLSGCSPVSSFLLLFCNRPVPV
T1 sequence (P14416 whole entry): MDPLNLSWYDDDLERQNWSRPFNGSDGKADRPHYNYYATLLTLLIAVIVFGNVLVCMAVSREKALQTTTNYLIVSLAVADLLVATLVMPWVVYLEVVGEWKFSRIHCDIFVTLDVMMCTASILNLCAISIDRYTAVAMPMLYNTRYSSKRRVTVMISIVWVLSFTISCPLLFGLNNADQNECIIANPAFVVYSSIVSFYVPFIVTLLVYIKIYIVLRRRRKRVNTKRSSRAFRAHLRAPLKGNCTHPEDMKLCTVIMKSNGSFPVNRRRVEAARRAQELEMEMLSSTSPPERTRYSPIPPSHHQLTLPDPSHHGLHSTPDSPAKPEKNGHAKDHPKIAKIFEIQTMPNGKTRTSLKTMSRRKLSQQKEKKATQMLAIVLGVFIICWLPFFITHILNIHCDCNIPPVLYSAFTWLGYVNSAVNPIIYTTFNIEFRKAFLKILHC

Consider `CN1C[C@H](C(=O)N[C@]2(C)O[C@@]3(O)[C@@H]4CCCN4C(=O)[C@H](Cc4ccccc4)N3C2=O)C[C@@H]2c3cccc4[nH]cc(c34)C[C@H]21` [DHE, Dihydroergotamine], for which the EC50 is 0.835 nM in assay [1] and 105 nM in assay [4]. The results for the IC50 in assay [2] and in assay [3] were 3850 nM and 1.32 nM, respectively.
Regarding `CN1C[C@H](C(=O)N[C@]2(C)O[C@@]3(O)[C@@H]4CCC(O)N4C(=O)[C@H](Cc4ccccc4)N3C2=O)C[C@@H]2c3cccc4[nH]cc(c34)C[C@H]21` (some centres unmarked) [8′-OH DHE, 8′-Hydroxy-Dihydroergotamine], the EC50 in assay [1] (Dopamine D2L, cAMP HTRF, read-out: Functional activity (agonist)) is 1.61 nM; in assay [4] (Serotonin 5-HT4e, cAMP HTRF, read-out: Functional activity (agonist)), 109 nM. Moreover, the IC50 in assay [2] (Serotonin 5-HT3, aequorin, read-out: Functional activity (antagonist)) is above 10000 nM; in assay [3] (Adrenergic α1D, aequorin, vs reference agonist at EC80, read-out: Functional activity (antagonist)), 0.61 nM.
